Results taken from patent US10322135B2, “Pharmaceutical composition comprising indole compound” (LG CHEM, LTD., priority 2009, dated 2019).
pIC50: −log10 of the molar value.

Columns and labels:
[1] = Removal capacity of ONOO− (peroxynitrite) by using dihydrorhodamine 123; type: biochemical; conditions: 50% inhibition of DHR123 oxidation by 1 μM ONOO−
Experimental: ONOO^− (peroxynitrite), which is known as a kind of RNS, plays a very important role in oxidative stress. Thus, it is very important to evaluate the removal capacity of ONOO^− of necrosis inhibitors. It is well known that DHR123 probe is oxidized by ONOO^−. Thus, by using such a property, the capacity of each compound was measured.
10 μl of each compound, which was serially diluted 3-fold from 50 μM, was dispensed into each well of a 96-well plate, and then 170 μl of assay mixture (10 μM DHR123, 1×PBS, 100 μM DPTA without ONOO^−) was added to each well. Finally, 20 μl of ONOO^− solution (final concentration: 1 μM) was added to initiate a reaction. Herein, the term “IC50” refers to the concentration of compounds which causes 50% inhibition of oxidation of DHR123 by ONOO^−.

[2] = Anti-oxidant effect by using DPPH; type: biochemical; conditions: read-out: DPPH anti-oxidant effect (IC50); concentration decreasing absorbance at 517 nm to 50%; 30 min, room temperature
Experimental: DPPH (1,1-diphenyl-2-picrylhydrazyl) is a stable free radical and has a purple color. […] Herein, the term “IC50” refers to the concentration of a compound which decreases absorbance at 517 nm to 50% of the original value.
180 μl of DPPH solution (200 μM in DMSO) was dispensed into each well of a 96-well plate, and 20 μl of compounds, which was serially diluted two-fold from 2,000 μM, was added thereto. They were then well mixed and kept at room temperature for 30 minutes. After 30 minutes, O.D. value at 517 nm was measured with a spectraMAX ELISA reader.

[3] = system: H9C2 cells; assay: Cell protection effect against oxidative stress induced by tBOOH (SRB staining); type: cell-based; conditions: Rattus norvegicus, 400 μM tBOOH 2 hrs, concentration protecting 50% of cells from necrosis
Experimental: It is known that tertiary-butylhydroperoxide (tBOOH) induces cell necrosis by causing oxidative stress in various cells. […] H9C2 cells were dispensed into each well of a 96-well plate (1.5×10 ^4 cells/100 μl/well). The next day, the cells were pretreated with each compound and then treated with tBOOH (final concentration: 400 μM) for 2 hrs. 50 μl of formaldehyde was added to each well to fix the cells. Cells were fixed for 30 minutes and washed with distilled water three times. Then, the plate was completely dried in a 50° C. dry oven and SRB solution was added thereto to stain remaining protein. The plate was washed with 1% acetic acid and dried. […] Herein, the term “IC50” refers to the concentration of compound which protects 50% of cells from necrosis induced by tBOOH treatment.

[4] = system: H9C2 cells; assay: Anti-oxidant effect by using dihydrorhodamine 123 in tBOOH-treated H9C2 cells; type: cell-based; conditions: 1 hr pretreatment, 400 μM tBOOH 2 hrs, 25% inhibition of DHR123 fluorescence
Experimental: Dihydrorhodamine 123 itself is nonfluorescent but is converted to fluorescent rhodamine 123 when it is oxidized by ROS (reactive oxygen species) or RNS (reactive nitrogen species). […] H9C2 cells were dispensed into each well of a 96-well plate (1.5×10^4 cells/100 μl/well). The next day, the cells were pretreated with each compound, which was serially diluted 3-fold from the highest concentration, for 1 hr, and then treated with 10 μl of DHR123 12.5 μM stock solution (final concentration: 1.25 μM) in 37° C. incubator for 30 minutes. The cells were then immediately treated with 400 μM tBOOH and incubated for 2 hrs. Then, fluorescence, which was excited at 480 nm and emitted at 538 nm, was measured with a spectraMAX Gemini microplate reader. […] PBS. Then 100 μl of PBS was added to each well of the 96-well plate and fluorescence of each cell was measured by immunofluorescence microscopy (fluorescence microscope: Olympus) (Because of DHR123 in cells, fluorescence is emitted in proportion to oxidation). In addition, inhibition of the generation of superoxide was measured with MitoSOX red probe (final concentration: 5 μM) as the same method.

[5] = Direct anti-oxidant effect on tBOOH (DHR123 probe, cell-free); type: biochemical; conditions: DHR123 1.25 μM, 2 hrs
Experimental: (§1) 10 μl of DHR123 probe (final concentration: 1.25 μM) was added to 10 μl of each compound which was diluted with 100 μl of DMEM complete media. H2O2 and tBOOH were added as the concentration shown in the following Table 5 and after 2 hrs, fluorescence at wavelengths (480 nm (ex)/538 nm (em)) was measured with spectraMax gemini. Herein, the term “IC25” refers to the concentration of compound which causes 25% decrease of fluorescence assuming the amount emitted by oxidation of DHR123 caused by H2O2 or tBOOH was 100%.

[6] = Direct anti-oxidant effect on H2O2 (DHR123 probe, cell-free); type: biochemical; conditions: DHR123 1.25 μM, 2 hrs
Experimental: as §1

SMILES	pIC50 [2]	IC50 [3] [µM]	also measured
O=C(O)C[C@H]1CSC(c2cc3cc(Oc4ccccc4)cc(NC4CCCC4)c3[nH]2)=N1 [Compound 5, [(S)-2-(7-cyclopentylamino-5-phenoxy-1H-indol-2-yl)-4,5-dihydro-thiazol-4-yl]-acetic acid]	4.70		pIC50 [1]: 5.47
O=S1(=O)CCN(Cc2cc(N(CC3CCOCC3)CC3CCOCC3)c3[nH]c(-c4ccccc4)cc3c2)CC1 [Compound 11, [5-(1,1-dioxo-thiomorpholin-4-yl)methyl-2-phenyl-1H-indol-7-yl]-bis-[(tetrahydropyran-4-yl)methyl]-amine]	4.90		
c1ccc(-c2nc3cccc(NC4CCOCC4)c3[nH]2)cc1 [Example 2, (2-phenyl-3H-benzimidazol-4-yl)-(tetrahydro-pyran-4-yl)-amine]		2	
c1ccc(-c2nc3cccc(NC4CCCC4)c3[nH]2)cc1 [Example 1, cyclopentyl-(2-phenyl-3H -benzimidazol-4-yl)-amine]		0.6	
O=S1(=O)CCN(Cc2cc(NC3CCOCC3)c3[nH]c(-c4ccccc4)cc3c2)CC1 [Compound 9, (tetrahydropyran-4-yl)-[2-phenyl-5-(1,1-dioxo-thiomorpholin-4-yl)methyl-1H-indol-7-yl]-amine]		< 0.2	IC25 (μM), anti-oxidant effect by using DHR 123 [4]: 0.10 µM
Cc1cc(NC2CCCC2)c2[nH]c(C3=N[C@@H](CC(=O)O)CS3)cc2c1 [Compound 1, [(S)-2-(7-cyclopentylamino-5-methyl-1H-indol-2-yl)-4,5-dihydro-thiazol-4-yl]-acetic acid]	4.62		
Cc1cc(NC2CCCC2)c2[nH]c(C3=N[C@@H](CC(=O)O)CO3)cc2c1 [Compound 3, [(S)-2-(7-cyclopentylamino-5-methyl-1H-indol-2-yl)-4,5-dihydro-oxazol-4-yl]-acetic acid]	4.76		IC25(μM) tBOOH (0.2 mM) [5]: 2 µM; IC25(μM) tBOOH (0.4 mM) [5]: 2.4 µM; IC25(μM) H2O2 (0.3 mM) [6]: 2.2 µM; IC25(μM) H2O2 (0.6 mM) [6]: 2.15 µM
Cc1nnc2n1CCN(CC[C@]1(c3cc4cc(Oc5ccccc5)cc(NC5CCCC5)c4[nH]3)CSC=N1)C2 [Compound 7, cyclopentyl-(2-{(S)-4-[2-(3-methyl-5,6-dihydro-8H-[1,2,4]triazolo[4,3-a]pyrazin-7-yl)-ethyl]-4,5-dihydro-thiazol-4-yl}-5-phenoxy-1H-indol-7-yl)-amine]	4.60		
O=C(C1CCCOC1)N1CCC(Nc2cc(CN3CCS(=O)(=O)CC3)cc3cc(-c4ccccc4)[nH]c23)CC1 (centres unmarked) [Compound 12, {4-[5-(1,1-dioxo-thiomorpholin-4-yl)methyl-2-phenyl-1H-indol-7-ylamino]-piperidin-1-yl}-(tetrahydropyran-3-yl)methanone]	4.72		IC25 (μM), anti-oxidant effect by using DHR 123 [4]: 0.24 µM; IC25(μM) tBOOH (0.2 mM) [5]: 1.95 µM; IC25(μM) tBOOH (0.4 mM) [5]: 3 µM; pIC50 [1]: 6.68; IC25(μM) H2O2 (0.3 mM) [6]: 1.65 µM; IC25(μM) H2O2 (0.6 mM) [6]: 2 µM
O=C(O)C[C@H]1CSC(c2cc3cccc(NCC4CCOCC4)c3[nH]2)=N1 [Compound 8, ((S)-2-{7-[(tetrahydropyran-4-ylmethyl)-amino]-1H-indol-2-yl}-4,5-dihydro-thiazol-4-yl)-acetic acid]	4.69		
O=C(O)C[C@H]1CSC(c2cc3cccc(NC4CCCC4)c3[nH]2)=N1 [Compound 4, [(S)-2-(7-cyclopentylamino-1H-indol-2-yl)-4,5-dihydro-thiazol-4-yl]-acetic acid]	4.82		IC25(μM) tBOOH (0.2 mM) [5]: 3 µM; IC25(μM) tBOOH (0.4 mM) [5]: 5.8 µM; IC25(μM) H2O2 (0.3 mM) [6]: 2.3 µM; IC25(μM) H2O2 (0.6 mM) [6]: 3.6 µM
O=C1CN(CC[C@H]2CSC(c3cc4cc(Oc5ccccc5)cc(NC5CCCC5)c4[nH]3)=N2)CCN1 [Compound 6, 4-{2-[(S)-2-(7-cyclopentylamino-5-phenoxy-1H-indol-2-yl)-4,5-dihydro-thiazol-4-yl]-ethyl}-piperazin-2-one]	4.64	0.13	
Cc1cc(NC2CCOCC2)c2[nH]c(C3=N[C@@H](CC(=O)O)CS3)cc2c1 [Compound 2, {(S)-2-[5-methyl-7-(tetrahydropyran-4-ylamino)-1H-indol-2-yl]-4,5-dihydro-thiazol-4-yl}-acetic acid]	4.62	6.5	
Cc1cc(NCC2CCOCC2)c2[nH]c(C3=N[C@@H](CC(=O)O)CS3)cc2c1 [Compound 14, ((S)-2-{5-methyl-7-[(tetrahydropyran-4-ylmethyl)-amino]-1H-indol-2-yl}-4,5-dihydro-thiazol-4-yl)-acetic acid]	4.55	0.72	
O=S1(=O)CCN(Cc2cc(NCC3CCOCC3)c3[nH]c(-c4ccccc4)cc3c2)CC1 [Compound 10, [5-(1,1-dioxo-thiomorpholin-4-yl)methyl-2-phenyl-1H-indol-7-yl]-(tetrahydropyran-4-yl)methyl-amine]	4.66		
CS(=O)(=O)N1CCC(Nc2cc(CN3CCS(=O)(=O)CC3)cc3cc(-c4ccccc4)[nH]c23)CC1 [Compound 13, [5-(1,1-dioxo-thiomorpholin-4-yl)methyl-2-phenyl-1H-indol-7-yl]-(1-methylsulfonyl-piperidin-4-yl)-amine]	4.77	< 0.2	IC25 (μM), anti-oxidant effect by using DHR 123 [4]: <0.1 µM; pIC50 [1]: 6.05
